{"source": "PubChem BioAssay AID248", "about": "(DTP/NCI, 2004)", "test_system": "L1210 leukemia ip in BDF1 mice, survival T/C", "test": "NCI In Vivo Anticancer Drug Screen. Data for tumor model L1210 Leukemia (intraperitoneal) in B6D2F1 (BDF1) mice", "conditions": "higher = longer survival", "in_short": "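Each compound was tested against a transplantable tumor grown in mice. The endpoint was survival, with treated animals benchmarked against vehicle controls as a simple ratio.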", "key": {"[1]": {"conditions": "endpoint: mean survival time, dose: 100.0 mg/kg/injection, schedule: Q04DX003 (ip), vehicle: saline with Tween-80"}, "[2]": {"conditions": "endpoint: mean survival time, dose: 200.0 mg/kg/injection, schedule: Q04DX003 (ip), vehicle: saline with Tween-80"}, "[3]": {"conditions": "endpoint: mean survival time, dose: 400.0 mg/kg/injection, schedule: Q04DX003 (ip), vehicle: saline with Tween-80"}, "[4]": {"conditions": "endpoint: mean survival time, dose: 100.0 mg/kg/injection, schedule: Q04DX003 (ip), vehicle: Klucel (hydroxypropylcellulose) (HPC)"}, "[5]": {"conditions": "endpoint: mean survival time, dose: 200.0 mg/kg/injection, schedule: Q04DX003 (ip), vehicle: Klucel (hydroxypropylcellulose) (HPC)"}, "[6]": {"conditions": "endpoint: mean survival time, dose: 400.0 mg/kg/injection, schedule: Q04DX003 (ip), vehicle: Klucel (hydroxypropylcellulose) (HPC)"}, "[7]": {"conditions": "endpoint: mean survival time, dose: 100.0 mg/kg/injection, schedule: Q01DX001 (ip), vehicle: other"}, "[8]": {"conditions": "endpoint: mean survival time, dose: 200.0 mg/kg/injection, schedule: Q01DX001 (ip), vehicle: other"}}, "note": "Toxic doses and inconclusive results are not listed."}
{"molecule": "CCCCCCC(C)O[Si](C)c1ccc(CC)cc1", "note": "(stereo not given)", "values": [{"measurement": "T/C", "setting": "[1]", "result": "99 % of control"}, {"measurement": "T/C", "setting": "[2]", "result": "95 % of control"}, {"measurement": "T/C", "setting": "[3]", "result": "103 % of control"}]}
{"molecule": "C=CCCCCCCC=C", "values": [{"measurement": "T/C", "setting": "endpoint: mean survival time, dose: 50.0 mg/kg/injection, schedule: Q01DX001 (ip), vehicle: carboxymethylcellulose (CMC)", "result": "93 % of control"}, {"measurement": "T/C", "setting": "endpoint: mean survival time, dose: 200.0 mg/kg/injection, schedule: Q01DX001 (ip), vehicle: carboxymethylcellulose (CMC)", "result": "88 % of control"}, {"measurement": "T/C", "setting": "endpoint: mean survival time, dose: 400.0 mg/kg/injection, schedule: Q01DX001 (ip), vehicle: carboxymethylcellulose (CMC)", "result": "93 % of control"}]}
{"molecule": "COc1ccc(/C=N/CCl)cc1", "values": [{"measurement": "T/C", "setting": "[1]", "result": "110 % of control"}, {"measurement": "T/C", "setting": "[2]", "result": "92 % of control"}, {"measurement": "T/C", "setting": "[3]", "result": "96 % of control"}]}
{"molecule": "O=C(Nc1ccccc1)NC(O)C(Cl)(Cl)Cl", "note": "(stereo not given)", "values": [{"measurement": "T/C", "setting": "[4]", "result": "95 % of control"}, {"measurement": "T/C", "setting": "[5]", "result": "95 % of control"}, {"measurement": "T/C", "setting": "[6]", "result": "98 % of control"}]}
{"molecule": "CN(C)c1ccc(C=Nc2ccccc2)cc1", "values": [{"measurement": "T/C", "setting": "[7]", "result": "98 % of control"}, {"measurement": "T/C", "setting": "[8]", "result": "102 % of control"}, {"measurement": "T/C", "setting": "endpoint: mean survival time, dose: 400.0 mg/kg/injection, schedule: Q01DX001 (ip), vehicle: other", "result": "108 % of control"}]}
{"molecule": "CSc1ccc(NC(=O)NCCc2ccccc2)cc1", "values": [{"measurement": "T/C", "setting": "endpoint: mean survival time, dose: 100.0 mg/kg/injection, schedule: Q01DX009 (ip), vehicle: saline with Tween-80", "result": "94 % of control"}, {"measurement": "T/C", "setting": "[4]", "result": "96 % of control"}, {"measurement": "T/C", "setting": "endpoint: mean survival time, dose: 200.0 mg/kg/injection, schedule: Q01DX009 (ip), vehicle: saline with Tween-80", "result": "102 % of control"}, {"measurement": "T/C", "setting": "[5]", "result": "96 % of control"}, {"measurement": "T/C", "setting": "endpoint: mean survival time, dose: 400.0 mg/kg/injection, schedule: Q01DX009 (ip), vehicle: saline with Tween-80", "result": "107 % of control"}, {"measurement": "T/C", "setting": "[6]", "result": "104 % of control"}]}
{"molecule": "C[n+]1c(/C=C/c2ccnc3c(O)cccc23)sc2ccccc21", "values": [{"measurement": "T/C", "setting": "endpoint: mean survival time, dose: 15.0 mg/kg/injection, schedule: Q01DX001 (ip), vehicle: saline", "result": "105 % of control"}, {"measurement": "T/C", "setting": "endpoint: mean survival time, dose: 30.0 mg/kg/injection, schedule: Q01DX001 (ip), vehicle: saline", "result": "97 % of control"}]}
{"molecule": "N#CC(c1ccccc1)N1CCCCC1", "note": "(stereo not given)", "values": [{"measurement": "T/C", "setting": "[4]", "result": "101 % of control"}, {"measurement": "T/C", "setting": "[5]", "result": "107 % of control"}, {"measurement": "T/C", "setting": "[6]", "result": "91 % of control"}]}
{"molecule": "CCN(CC)C(=S)[S][Sb]([S]C(=S)N(CC)CC)[c]1ccccc1", "values": [{"measurement": "T/C", "setting": "[7]", "result": "112 % of control"}, {"measurement": "T/C", "setting": "[8]", "result": "89 % of control"}]}
{"molecule": "C[N+](C)(C)CC(=O)N/N=C\\c1c(O)ccc2ccccc12", "values": [{"measurement": "T/C", "setting": "endpoint: mean survival time, dose: 25.0 mg/kg/injection, schedule: Q04DX003 (ip), vehicle: saline with Tween-80", "result": "97 % of control"}, {"measurement": "T/C", "setting": "endpoint: mean survival time, dose: 50.0 mg/kg/injection, schedule: Q04DX003 (ip), vehicle: saline with Tween-80", "result": "104 % of control"}, {"measurement": "T/C", "setting": "[4]", "result": "100 % of control"}, {"measurement": "T/C", "setting": "[1]", "result": "97 % of control"}, {"measurement": "T/C", "setting": "[5]", "result": "93 % of control"}]}
{"molecule": "O=C(Nc1cccc(F)c1)Nc1cccc(C(F)(F)F)c1", "values": [{"measurement": "T/C", "setting": "endpoint: mean survival time, dose: 100.0 mg/kg/injection, schedule: Q01DX009 (ip), vehicle: Klucel (hydroxypropylcellulose) (HPC)", "result": "96 % of control"}, {"measurement": "T/C", "setting": "endpoint: mean survival time, dose: 200.0 mg/kg/injection, schedule: Q01DX009 (ip), vehicle: Klucel (hydroxypropylcellulose) (HPC)", "result": "95 % of control"}, {"measurement": "T/C", "setting": "endpoint: mean survival time, dose: 400.0 mg/kg/injection, schedule: Q01DX009 (ip), vehicle: Klucel (hydroxypropylcellulose) (HPC)", "result": "105 % of control"}]}
{"molecule": "COc1cccc2c1C(=O)c1c(O)c3c(c(O)c1C2=O)CC(O)(C(C)=O)CC3OC1CC(N)C(O)C(C)O1", "note": "(stereo not given)", "values": [{"measurement": "T/C", "setting": "endpoint: mean survival time, dose: 2.0 mg/kg/injection, schedule: Q01DX001 (ip), vehicle: saline", "result": "121 % of control"}, {"measurement": "T/C", "setting": "endpoint: mean survival time, dose: 8.0 mg/kg/injection, schedule: Q01DX009 (ip), vehicle: saline", "result": "98 % of control"}, {"measurement": "T/C", "setting": "endpoint: mean survival time, dose: 16.0 mg/kg/injection, schedule: Q01DX001 (ip), vehicle: saline", "result": "121 % of control"}, {"measurement": "T/C", "setting": "endpoint: mean survival time, dose: 32.0 mg/kg/injection, schedule: Q01DX001 (ip), vehicle: saline", "result": "100 % of control"}, {"measurement": "T/C", "setting": "endpoint: median survival time, dose: 6.0 mg/kg/injection, schedule: Q01DX005 (ip), vehicle: other", "result": "117 % of control"}, {"measurement": "T/C", "setting": "endpoint: median survival time, dose: 6.0 mg/kg/injection, schedule: Q04DX003 (ip), vehicle: water", "result": "122 % of control"}, {"measurement": "T/C", "setting": "endpoint: median survival time, dose: 6.6 mg/kg/injection, schedule: Q01DX005 (ip), vehicle: water", "result": "115 % of control"}, {"measurement": "T/C", "setting": "endpoint: median survival time, dose: 10.0 mg/kg/injection, schedule: Q04DX003 (ip), vehicle: water", "result": "115 % of control"}, {"measurement": "T/C", "setting": "endpoint: median survival time, dose: 11.0 mg/kg/injection, schedule: Q01DX005 (ip), vehicle: other", "result": "117 % of control"}, {"measurement": "T/C", "setting": "endpoint: median survival time, dose: 11.0 mg/kg/injection, schedule: Q01DX005 (ip), vehicle: water", "result": "121 % of control"}, {"measurement": "T/C", "setting": "endpoint: median survival time, dose: 16.0 mg/kg/injection, schedule: Q01DX005 (ip), vehicle: other", "result": "117 % of control"}, {"measurement": "T/C", "setting": "endpoint: median survival time, dose: 17.0 mg/kg/injection, schedule: Q04DX003 (ip), vehicle: water", "result": "155 % of control"}, {"measurement": "T/C", "setting": "endpoint: median survival time, dose: 21.0 mg/kg/injection, schedule: Q01DX005 (ip), vehicle: other", "result": "122 % of control"}, {"measurement": "T/C", "setting": "endpoint: median survival time, dose: 31.0 mg/kg/injection, schedule: Q01DX005 (ip), vehicle: other", "result": "121 % of control"}, {"measurement": "T/C", "setting": "endpoint: median survival time, dose: 48.0 mg/kg/injection, schedule: Q04DX003 (ip), vehicle: water", "result": "115 % of control"}, {"measurement": "T/C", "setting": "endpoint: median survival time, dose: 80.0 mg/kg/injection, schedule: Q04DX003 (ip), vehicle: water", "result": "157 % of control"}, {"measurement": "T/C", "setting": "endpoint: median survival time, dose: 83.0 mg/kg/injection, schedule: Q01DX005 (ip), vehicle: water", "result": "100 % of control"}, {"measurement": "T/C", "setting": "endpoint: median survival time, dose: 133.0 mg/kg/injection, schedule: Q04DX003 (ip), vehicle: water", "result": "115 % of control"}, {"measurement": "T/C", "setting": "endpoint: median survival time, dose: 222.0 mg/kg/injection, schedule: Q04DX003 (ip), vehicle: water", "result": "89 % of control"}]}
